Measurements: patent US20120058935A1, “ANTIMICROBIAL COMPOSITIONS AND METHODS OF USE THEREFORE” (priority 2009, published 2012)
In brackets after ≈: the same amount, converted by molar mass. Read-outs that look alike come from different tables or passages of the source. Ends that are not written are not given here.

Columns and labels:
[1] = clinical trial, AD patients, ref. [34]; cited from earlier work
Candida albicans = assay type: cell-based
Procedure: (§1) Bacteria were cultured aerobically in Mueller-Hinton broth (MHB), Brain and Heart Infusion broth (BHIB), or BHIB supplemented with 1% lysed horse blood and plated on Tryptone Soy Agar (TSA) plates containing 5% defibrinated sheep blood. […] Organisms were subcultured for 2 hrs to generate mid-logarithmic growth cultures for use as inoculates in experiments.
(§2) Bacteria inoculum cell densities were normalized to 5×10^5 cells/ml immediately before use photometrically and subsequently confirmed by colony count. Inoculum of C. albicans contained a cell density of 2.5×10^3 CFU/ml.
(§3) Bulk powdered peptides were first dissolved in 30% trifluoroethanol (TFE) at 1 mg/ml. […] Stock solutions at 2 mg/ml were prepared the day of experimentation from the peptide films by solubilizing a second time in either water or 20% TFE. Aβ stocks prepared in water were sonicated and insoluble peptide aggregates pelleted by centrifugation (10 min×16,000 g). Peptide concentrations in stock solutions were determined immediately before use by bicinchoninic acid (BCA) protein assay. […] For MIC experiments, peptides were serially diluted into growth media. For other experiments stocks were diluted into required working buffers. Experiments included controls for peptide buffer vehicle alone.
(§4) Experiments identified peptide MIC by broth microdilution susceptibility test in conjunction with CFU and alamar blue assays. […] Peptide MIC was taken as the lowest concentration able reduce cell growth by CFU and alamar blue assays by at least two-fold and which correlated with the visible loss of a growth button on the bottom of microtiter wells. Experiments were repeated a minimum of three times for each organism, and tests included at least three replicates for each assay condition. Experiments included control serial dilutions of buffer vehicle alone.

Enterococcus faecalis = assay type: cell-based
Procedure: as §1, §2, §3, §4

Listeria monocytogenes = assay type: cell-based
Procedure: as §1, §2, §3, §4

Pseudomonas aeruginosa = assay type: cell-based
Procedure: as §1, §2, §3, §4

[2] = test system: Staphylococcus epidermidis; assay type: cell-based
Procedure: as §1, §2, §3, §4

Streptococcus pyogenes = assay type: cell-based
Procedure: as §1, §2, §3, §4

12 microorganisms = assay: Antimicrobial activity against the panel of 12 microorganisms (summary); assay type: cell-based; details: summary in words of the MIC experiments
Procedure: Peptide antimicrobial activity was determined as minimal inhibitory concentration (MIC). Experiments identified peptide MIC by broth microdilution susceptibility test in conjunction with CFU and alamar blue assays. Inoculum containing mid-logarithmic phase cells was dispensed into the wells of polypropylene 96-well plates (Fisher, Pittsburgh, Pa.) containing seven two-fold dilutions of test peptide in growth media. Plates were then incubated aerobically overnight (12 to 18 hrs) at 37° C. Peptide MIC was taken as the lowest concentration able reduce cell growth by CFU and alamar blue assays by at least two-fold and which correlated with the visible loss of a growth button on the bottom of microtiter wells. Experiments were repeated a minimum of three times for each organism, and tests included at least three replicates for each assay condition. Experiments included control serial dilutions of buffer vehicle alone.

Escherichia coli = assay type: cell-based; details: ATCC 25922; BHIB; 12 hrs incubation at 37° C.
Procedure: as §1, §2, §3, §4

Staphylococcus aureus = assay type: cell-based; details: ATCC 25923; MHB; 12 hrs incubation at 37° C.
Procedure: as §1, §2, §3, §4

Streptococcus agalactiae = assay type: cell-based; details: ATCC 12386; BHIB/LHB; 12 hrs incubation at 37° C.
Procedure: as §1, §2, §3, §4

Streptococcus mitis = assay type: cell-based; details: ATCC 6249; BHIB/LHB; 12 hrs incubation at 37° C.
Procedure: as §1, §2, §3, §4

Streptococcus pneumoniae = assay type: cell-based; details: ATCC 49619; BHIB/LHB; 12 hrs incubation at 37° C.
Procedure: as §1, §2, §3, §4

Streptococcus salivarius = assay type: cell-based; details: ATCC 13419; BHIB/LHB; 12 hrs incubation at 37° C.
Procedure: as §1, §2, §3, §4

E. faecalis = E. faecalis growth curves with peptide (CFU with time); assay type: cell-based, Enterococcus faecalis; details: 25 μg/ml peptide; CFU counted with time (FIG. 1)
Procedure: Bacterial growth with time was monitored by inoculation of agar with diluted incubants and counting CFU. Representative data from six experiments is shown as mean signal of four replicates±s.e.m.
CFU assay; Serial dilutions of incubants were prepared and streaked onto the surface of agar. The agar plates were then incubated overnight at 37° C. and colonies forming units counted.

Compound	MIC against Candida albicans (Candida albicans; 18 h) [µg/mL]	MIC against Enterococcus faecalis (Enterococcus faecalis; 18 h) [µg/mL]	MIC against Listeria monocytogenes (Listeria monocytogenes; 18 h) [µg/mL]	MIC against Pseudomonas aeruginosa (Pseudomonas aeruginosa; 18 h) [µg/mL]	MIC against Staphylococcus epidermidis ([2]; 18 h) [µg/mL]	MIC against Streptococcus pyogenes (Streptococcus pyogenes; 18 h) [µg/mL]	Inhibition of microbial growth, panel of 12 microorganisms (12 microorganisms)	other results
C[C@@H](C(=O)O)c1ccc(-c2ccccc2)c(F)c1 [tarenflurbil]								Rates of infection in patients receiving the drug [1]: significantly increased rates of infection
AIVVGGVMLGIIAGKNSGVDEAFFVLKQHHVEYGSDHRFEAD [reAβ42]	>25	50	>50	>50	>50	>50	not inhibited	
DAEFGHDSGFEVRHQKLVFFAEDVGSNKGAIIGLMVGGVVIA [roAβ42]	0.78	3.13	6.25	>50	3.13	>50	demonstrated antimicrobial activity	
recAβ42: Recombinant human Aβ42 purchased from rPeptide							Equivalent findings	
CC[C@H](C)[C@H](NC(=O)[C@H](CCCCN)NC(=O)[C@H](CCC(=O)O)NC(=O)[C@H](CCCCN)NC(=O)[C@H](CO)NC(=O)[C@H](CCCCN)NC(=O)[C@H](CCCNC(=N)N)NC(=O)[C@H](Cc1ccccc1)NC(=O)[C@H](Cc1ccccc1)NC(=O)[C@H](CC(=O)O)NC(=O)CNC(=O)[C@H](CC(C)C)NC(=O)[C@@H](N)CC(C)C)C(=O)NCC(=O)N[C@@H](CCCCN)C(=O)N[C@@H](CCC(=O)O)C(=O)N[C@@H](Cc1ccccc1)C(=O)N[C@@H](CCCCN)C(=O)N[C@@H](CCCNC(=N)N)C(=O)N[C@H](C(=O)N[C@H](C(=O)N[C@@H](CCC(N)=O)C(=O)N[C@@H](CCCNC(=N)N)C(=O)N[C@H](C(=O)N[C@@H](CCCCN)C(=O)N[C@@H](CC(=O)O)C(=O)N[C@@H](Cc1ccccc1)C(=O)N[C@@H](CC(C)C)C(=O)N[C@@H](CCCNC(=N)N)C(=O)N[C@@H](CC(N)=O)C(=O)N[C@@H](CC(C)C)C(=O)N[C@H](C(=O)N1CCC[C@H]1C(=O)N[C@@H](CCCNC(=N)N)C(=O)N[C@H](C(=O)N[C@@H](CCC(=O)O)C(=O)N[C@@H](CO)C(=O)O)[C@@H](C)O)C(C)C)[C@@H](C)CC)C(C)C)[C@@H](C)CC [LL-37]								MIC against Candida albicans (Candida albicans; ATCC 10231, RPMI-1640, 18 hrs incubation at 37° C.): 6.25 µg/mL (≈ 1.39 µM); MIC against Enterococcus faecalis (Enterococcus faecalis; ATCC 29212, BHIB, 18 hrs incubation at 37° C.): 6.25 µg/mL (≈ 1.39 µM); MIC against Escherichia coli (Escherichia coli): 1.56 µg/mL (≈ 0.347 µM); MIC against Listeria monocytogenes (Listeria monocytogenes; ATCC 19112, BHIB, 18 hrs incubation at 37° C.): 25 µg/mL (≈ 5.56 µM); MIC against Pseudomonas aeruginosa (Pseudomonas aeruginosa; ATCC 27853, BHIB, 18 hrs incubation at 37° C.): 6.25 µg/mL (≈ 1.39 µM); MIC against Staphylococcus aureus (Staphylococcus aureus): 6.25 µg/mL (≈ 1.39 µM); MIC against Staphylococcus epidermidis ([2]; ATCC 12228, BHIB, 18 hrs incubation at 37° C.): 25 µg/mL (≈ 5.56 µM); MIC against Streptococcus agalactiae (Streptococcus agalactiae): 12.5 µg/mL (≈ 2.78 µM); MIC against Streptococcus mitis (Streptococcus mitis): 6.25 µg/mL (≈ 1.39 µM); MIC against Streptococcus pneumoniae (Streptococcus pneumoniae): 1.56 µg/mL (≈ 0.347 µM); MIC against Streptococcus pyogenes (Streptococcus pyogenes; ATCC 19615, BHIB/LHB, 18 hrs incubation at 37° C.): 6.25 µg/mL (≈ 1.39 µM); MIC against Streptococcus salivarius (Streptococcus salivarius): 50 µg/mL (≈ 11.1 µM); Mode of action on E. faecalis growth (bacteriostatic or bactericidal) (E. faecalis): potent bactericidal activity
